The target in the assay is USP14 (Homo sapiens (Human), UniProt P54578). The experiment in a line: Usp14 inhibition assay (Example 57B, B-series compounds). Type of assay: biochemical. The conditions noted are these: IC50 class; average value from a minimum of two experimental determinations. An excerpt: Example 57B: Usp14 Inhibition Assay
The IC50 values in the Table below represent the average value from a minimum of two experimental determinations.

Consider 32 compounds from patent US11560385B2, “Proteasome activity enhancing compounds” (Proteostasis Therapeutics, Inc., priority 2018, dated 2023).

By pIC50 is commonly meant −log10 of the IC50, conventionally taken in molar units. Read a high pIC50 as a small IC50.

pIC50: −log10 of the molar value.

Sequence of USP14 (P54578 whole entry, looked up): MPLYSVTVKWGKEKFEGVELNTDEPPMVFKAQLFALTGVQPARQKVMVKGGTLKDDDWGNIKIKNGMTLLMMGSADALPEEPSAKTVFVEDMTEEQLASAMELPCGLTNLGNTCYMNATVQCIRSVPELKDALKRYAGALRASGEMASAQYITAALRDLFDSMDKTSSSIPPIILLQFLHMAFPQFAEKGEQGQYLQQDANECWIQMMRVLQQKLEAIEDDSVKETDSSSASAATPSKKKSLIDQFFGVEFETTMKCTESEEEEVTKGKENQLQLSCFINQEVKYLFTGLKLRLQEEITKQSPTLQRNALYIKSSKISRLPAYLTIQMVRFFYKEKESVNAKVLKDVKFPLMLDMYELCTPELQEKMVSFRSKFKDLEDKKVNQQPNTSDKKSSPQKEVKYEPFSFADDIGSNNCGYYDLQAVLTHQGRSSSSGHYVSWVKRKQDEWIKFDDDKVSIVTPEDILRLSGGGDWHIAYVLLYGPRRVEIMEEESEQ

As to `Cc1c(C(=O)CN2[C@H]3CC[C@@H]2[C@@H](O)C3)cc(CC23CC(C2)C3)n1-c1ccc(C#N)cc1` (racemic) [Example 158B, (±)-4-(5-(Bicyclo[1.1.1]pentan-1-ylmethyl)-3-(2-((1R,2S,4S)-2-hydroxy-7-azabicyclo[2.2.1]heptan-7-yl)acetyl)-2-methyl-1H-pyrrol-1-yl)benzonitrile], the pIC50 is < 6.30.
Next, `COCCCCc1cc(C(=O)CN2[C@@H]3CC[C@H]2[C@@H](O)C3)c(C)n1-c1ccc(C#N)cc1` (stereo in doubt) [Example 12B, (rel)-4-(3-(2-((1R,2R,4S)-2-Hydroxy-7-azabicyclo[2.2.1]heptan-7-yl)acetyl)-5-(4-methoxybutyl)-2-methyl-1H-pyrrol-1-yl)benzonitrile]: > 7.30; `COCCCCc1cc(C(=O)CN2[C@H]3CC[C@@H]2[C@H](O)C3)c(C)n1-c1ccc(C#N)cc1` (stereo in doubt) [Example 13B, (rel)-4-(3-(2-((1S,2S,4R)-2-Hydroxy-7-azabicyclo[2.2.1]heptan-7-yl)acetyl)-5-(4-methoxybutyl)-2-methyl-1H-pyrrol-1-yl)benzonitrile]: > 7.30.
The figure for `Cc1c(C(=O)CN2C3CCC2C(O)C3)cc([C@H](C)C2CCC2)n1-c1ccc(C#N)cc1` (stereo in doubt) [Example 151B, 4-(5-((R)-1-Cyclobutylethyl)-3-(2-((2R)-2-hydroxy-7-azabicyclo[2.2.1]heptan-7-yl)acetyl)-2-methyl-1H-pyrrol-1-yl)benzonitrile] is < 6.30.
Next, `Cc1c(C(=O)CN2C3CCC2CC3)c(C)n(-c2ccc(C#N)cc2)c1CCCCS(C)(=O)=O` [Example 1B, 4-(3-(2-(7-Azabicyclo[2.2.1]heptan-7-yl)acetyl)-2,4-dimethyl-5-(4-(methylsulfonyl)butyl)-1H-pyrrol-1-yl)benzonitrile]: < 6.30; `Cc1c(C(=O)CN2[C@@H]3CC[C@@H]2CC(O)C3)cc(CCCCS(C)(=O)=O)n1-c1ccc(C#N)cc1` (stereo partly drawn) [Example 7B, 4-(3-(2-((1R,3r,5S)-3-Hydroxy-8-azabicyclo[3.2.1]octan-8-yl)acetyl)-2-methyl-5-(4-(methylsulfonyl)butyl)-1H-pyrrol-1-yl)benzonitrile]: > 7.30.
Take `Cc1c(C(=O)CN2C3CCC2CC3)c(C)n(-c2ccc(C#N)cc2)c1-c1ccc(C#N)cc1` [Example 16B, 4,4′-(4-(2-(7-Azabicyclo[2.2.1]heptan-7-yl)acetyl)-3,5-dimethyl-1H-pyrrole-1,2-diyl)dibenzonitrile]: the pIC50 is < 6.30.
Take `Cc1c(C(=O)CN2C3CCC2CC3)cc(CCCCS(C)(=O)=O)n1-c1ccc(Cl)cc1` [Example 18B, 2-(7-Azabicyclo[2.2.1]heptan-7-yl)-1-(1-(4-chlorophenyl)-2-methyl-5-(4-(methylsulfonyl)butyl)-1H-pyrrol-3-yl)ethan-1-one]: the negative logarithm of the IC50 (pIC50) was 6.30 to 7.30.
The figure for `Cc1c(C(=O)CN2C3CC4CC2CC(C3)O4)cc(C#CCCC#N)n1-c1ccc(C#N)cc1` [Example 21B, 4-(3-(2-((1r,3r,5r,7r)-2-Oxa-6-azaadamantan-6-yl)acetyl)-5-(4-cyanobut-1-yn-1-yl)-2-methyl-1H-pyrrol-1-yl)benzonitrile] is 6.30 to 7.30.
Next, `Cc1c(C(=O)CN2C3CCC2CC3)cc(CC2CCS(=O)(=O)CC2)n1-c1ccc(Cl)cc1` [Example 25B, 2-(7-Azabicyclo[2.2.1]heptan-7-yl)-1-(1-(4-chlorophenyl)-5-((1,1-dioxidotetrahydro-2H-thiopyran-4-yl)methyl)-2-methyl-1H-pyrrol-3-yl)ethan-1-one]: 6.30 to 7.30; `Cc1c(C(=O)CN2C3CCC2CC3)cc(/C=C\CCS(C)(=O)=O)n1-c1ccc(C#N)cc1` [Example 26B]: > 7.30; `Cc1c(C(=O)CN2C3CCC2CC3)cc(CCCCS(C)(=O)=O)n1-c1ccc(C#N)cc1` [Example 30B, 4-(3-(2-(7-Azabicyclo[2.2.1]heptan-7-yl)acetyl)-2-methyl-5-(4-(methylsulfonyl)butyl)-1H-pyrrol-1-yl)benzonitrile]: > 7.30.
Next, `Cc1c(C(=O)CN2C3CCC2CC3)cc(CCCCC#N)n1-c1ccc(Cl)cc1` [Example 31B, 5-(4-(2-(7-Azabicyclo[2.2.1]heptan-7-yl)acetyl)-1-(4-chlorophenyl)-5-methyl-1H-pyrrol-2-yl)pentanenitrile]: 6.30 to 7.30; `Cc1c(C(=O)CN2C3CCC2CC3)c(C)n(-c2ccc(C#N)cc2)c1/C=C/CCS(C)(=O)=O` [Example 32B, (E)-4-(3-(2-(7-Azabicyclo[2.2.1]heptan-7-yl)acetyl)-2,4-dimethyl-5-(4-(methylsulfonyl)but-1-en-1-yl)-1H-pyrrol-1-yl)benzonitrile]: 6.30 to 7.30.
As for `Cc1c(C(=O)CN2C3CCC2CC3)cc(/C=C/CCS(C)(=O)=O)n1-c1ccc(Cl)cc1` [Example 34B, (E)-2-(7-Azabicyclo[2.2.1]heptan-7-yl)-1-(1-(4-chlorophenyl)-2-methyl-5-(4-(methylsulfonyl)but-1-en-1-yl)-1H-pyrrol-3-yl)ethan-1-one], the pIC50 was > 7.30.
As for `Cc1c(C(=O)CN2C3CCC2CC3)cc(/C=C/CCS(C)(=O)=O)n1-c1ccc(C#N)cc1` [Example 35B, (E)-4-(3-(2-(7-Azabicyclo[2.2.1]heptan-7-yl)acetyl)-2-methyl-5-(4-(methylsulfonyl)but-1-en-1-yl)-1H-pyrrol-1-yl)benzonitrile], the pIC50 was > 7.30.
The figure for `Cc1c(C(=O)CN2C3CCC2CC3)cc(CC2COC2)n1-c1ccc(C#N)cc1` [Example 54B, 4-(3-(2-(7-Azabicyclo[2.2.1]heptan-7-yl)acetyl)-2-methyl-5-(oxetan-3-ylmethyl)-1H-pyrrol-1-yl)benzonitrile] is > 7.30; for `Cc1cc(C(=O)CN2C3CCC2CC3)c(C)n1-c1ccc(C#N)cc1` [Example 63B, 4-(3-(2-(7-Azabicyclo[2.2.1]heptan-7-yl)acetyl)-2,5-dimethyl-1H-pyrrol-1-yl)benzonitrile] it is < 6.30; for `Cc1cc(C(=O)CN2[C@@H]3CC[C@@H]2CC(O)C3)c(C)n1-c1ccc(C#N)cc1` (stereo partly drawn) [Example 66B, 4-(3-(2-((1R,3r,5S)-3-Hydroxy-8-azabicyclo[3.2.1]octan-8-yl)acetyl)-2,5-dimethyl-1H-pyrrol-1-yl)benzonitrile] it is 6.30 to 7.30.
Next, `Cc1cc(C(=O)CN2[C@@H]3CC[C@@H]2CC(O)C3)c(C)n1-c1ccc(C#N)cc1` (stereo partly drawn) [Example 67B, 4-(3-(2-((1R,3s,5S)-3-hydroxy-8-azabicyclo[3.2.1]octan-8-yl)acetyl)-2,5-dimethyl-1H-pyrrol-1-yl)benzonitrile]: 6.30 to 7.30.
The figure for `Cc1cc(C(=O)CN2[C@@H]3CC[C@@H]2CC(C)(O)C3)c(C)n1-c1ccc(C#N)cc1` (stereo partly drawn) [Example 68B, 4-(3-(2-((1R,3r,5S)-3-Hydroxy-3-methyl-8-azabicyclo[3.2.1]octan-8-yl)acetyl)-2,5-dimethyl-1H-pyrrol-1-yl)benzonitrile] is 6.30 to 7.30; for `Cc1cc(C(=O)CN2C3CCCC2CC3)c(C)n1-c1ccc(C#N)cc1` [Example 69B, 4-(3-(2-(8-Azabicyclo[3.2.1]octan-8-yl)acetyl)-2,5-dimethyl-1H-pyrrol-1-yl)benzonitrile] it is 6.30 to 7.30.
`Cc1cc(C(=O)CN2[C@@H]3CC[C@@H]2CC(O)(C(F)(F)F)C3)c(C)n1-c1ccc(C#N)cc1` (stereo partly drawn) [Example 74B, 4-(3-(2-((1R,3r,5S)-3-Hydroxy-3-(trifluoromethyl)-8-azabicyclo[3.2.1]octan-8-yl)acetyl)-2,5-dimethyl-1H-pyrrol-1-yl)benzonitrile]: the pIC50 was < 6.30.
`Cc1cc(C(=O)CN2[C@@H]3CC[C@@H]2CC(O)(C(F)(F)F)C3)c(C)n1-c1ccc(C#N)cc1` (stereo partly drawn) [Example 75B, 4-(3-(2-((1R,3s,5S)-3-Hydroxy-3-(trifluoromethyl)-8-azabicyclo[3.2.1]octan-8-yl)acetyl)-2,5-dimethyl-1H-pyrrol-1-yl)benzonitrile] gave a pIC50 of 6.30 to 7.30.
Next, `Cc1cc(C(=O)CN2C3CC4CC(C3)CC2C4)c(C)n1-c1ccc(C#N)cc1` [Example 80B, 4-(3-(2-((5r,7r)-2-Azaadamantan-2-yl)acetyl)-2,5-dimethyl-1H-pyrrol-1-yl)benzonitrile]: > 7.30; `Cc1cc(C(=O)CN2C3CC4CC2CC(O)(C4)C3)c(C)n1-c1ccc(C#N)cc1` [Example 81B, 4-(3-(2-((5s,7s)-5-Hydroxy-2-azaadamantan-2-yl)acetyl)-2,5-dimethyl-1H-pyrrol-1-yl)benzonitrile]: 6.30 to 7.30; `Cc1cc(C(=O)CN2C3CC4CC2CC(C3)O4)c(C)n1-c1ccc(C#N)cc1` [Example 84B, 4-(3-(2-((1r,3r)-2-Oxa-6-azaadamantan-6-yl)acetyl)-2,5-dimethyl-1H-pyrrol-1-yl)benzonitrile]: 6.30 to 7.30.
The figure for `Cc1cc(C(=O)CN2C3CCCC2CC(O)C3)c(C)n1-c1ccc(C#N)cc1` [Example 85B, 4-(3-(2-((1R,3s,5S)-3-Hydroxy-9-azabicyclo[3.3.1]nonan-9-yl)acetyl)-2,5-dimethyl-1H-pyrrol-1-yl)benzonitrile] is 6.30 to 7.30.
Next, `Cc1cc(C(=O)CN2C3CCCC2CC(O)C3)c(C)n1-c1ccc(C#N)cc1` [Example 86B, 4-(3-(2-((1R,3r,5S)-3-Hydroxy-9-azabicyclo[3.3.1]nonan-9-yl)acetyl)-2,5-dimethyl-1H-pyrrol-1-yl)benzonitrile]: 6.30 to 7.30; `Cc1cc(C(=O)CN2C3CCCC2CCC3)c(C)n1-c1ccc(C#N)cc1` [Example 87B, 4-(3-(2-((1s,5s)-9-Azabicyclo[3.3.1]nonan-9-yl)acetyl)-2,5-dimethyl-1H-pyrrol-1-yl)benzonitrile]: 6.30 to 7.30; `COC1C[C@H]2CC[C@H](C1)N2CC(=O)c1cc(C)n(-c2ccc(C#N)cc2)c1C` (stereo partly drawn) [Example 88B, 4-(3-(2-((1R,3r,5S)-3-Methoxy-8-azabicyclo[3.2.1]octan-8-yl)acetyl)-2,5-dimethyl-1H-pyrrol-1-yl)benzonitrile]: 6.30 to 7.30.
Compound `COC1C[C@H]2CC[C@H](C1)N2CC(=O)c1cc(C)n(-c2ccc(C#N)cc2)c1C` (stereo partly drawn) [Example 89B, 4-(3-(2-((1R,3s,5S)-3-Methoxy-8-azabicyclo[3.2.1]octan-8-yl)acetyl)-2,5-dimethyl-1H-pyrrol-1-yl)benzonitrile] showed a negative-log IC50 (pIC50) of 6.30 to 7.30.
